Here are results for two substances from patent publication US20070141723A1, “Immunohistochemistry staining controls” (priority 2005, published 2007).

*: point of attachment. FITC = O=C1OC2(c3ccc(O)cc3Oc3cc(O)ccc32)c2ccc(NC(=S)*)cc21

The test system of one test is 1D5 monoclonal antibody. Put plainly: Peptide ELISA of synthetic ER peptides with 1D5. It is filed as binding, mouse. The conditions noted are these: compared among ER peptides 3, 4 and 6. An excerpt:
Three synthetic peptides (designated as ER peptide 3, ER peptide 4, and ER peptide 6), that are representative of above consensus phage sequence, were synthesized (by SynPep Labs, Dublin, Calif. and Bachem Labs, King of Prussia, Pa.) and tested for specificity/affinity to 1D5 monoclonal antibody.
On the technique in general: In an ELISA, binding on a coated surface is turned into a signal by an enzyme label.

A further test concerns the target ER peptide mimic. Put plainly: immunostaining of ER peptide mimic spots on matrix, semi-quantitative colour score.

As for “Ac-DFQCPYVECVVNAPGGK (FITC) GK-CONH2 (Ac-DFQCPYVECVVNAPGGK(FITC)GK-NH2; cysteine pairing not given here) [ER peptide 3]”, the “peptide ELISA signal” value with 1D5 monoclonal antibody is “highest signal”. For the substance “anti-human estrogen receptor mouse monoclonal antibody 1D5”, the Staining intensity (1-4+) with ER peptide mimic is 4 1-4+ scale.
